{"source": "patent US11547683B2", "about": "“Therapeutic compounds, formulations, and uses thereof” (Tvardi Therapeutics, Inc., priority 2020, dated 2023)", "experiment": "Studies on oxidation of the compound of Formula (I)", "format": "physicochemical", "experimental": "Stability was analyzed using a variety of antioxidants. A bulk formulation containing Kolliphor® RH 40, PEG600, Polysorbate 80, Labrasol®, and Transcutol® HP (45:15:10:20:10 by weight) was prepared with a compound of Formula (I) concentration of 60 mg/g. Antioxidants, including Vitamin E (0.05 wt %), ascorbyl palmitate (0.05 wt %), butylated hydroxytoluene (0.005 wt %), and triethyl citrate (0.7 wt %) were dissolved/dispersed in the bulk formulation, respectively. The resulting samples were placed at room temperature in glass vials and protected from light. The samples were monitored for purity by HPLC at 0, 3, and 8 weeks.", "data": [{"molecule": "COc1ccc(S(=O)(=O)Nc2cc(-c3c(O)ccc4ccccc34)c(O)c3ccccc23)cc1", "note": "[Compound of Formula (I)]", "values": [{"measurement": "susceptibility to oxidation", "value": "susceptible to oxidation"}]}]}
